Patent US10287267B2, “Isoquinolin-3-yl carboxamides and preparation and use thereof” (Samumed, LLC, priority 2016, dated 2019)
Where two headings read alike, the source gives them in different places.

Assays:
[1] = test system: Wnt pathway (Sp5-Luc reporter, TCF/LEF binding sites) in SW480 colon carcinoma cells; test: Screening assay for Wnt activity: Sp5-Luc reporter gene assay; format: cell-based, human; settings: Sp5-Luc reporter, SW480 cells, 36 to 48 hours;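 also: firefly luciferase luminescence read in stably transduced SW480 cells carrying the Sp5 promoter reporter with eight TCF/LEF sites, compounds given in 0.1% DMSO final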
Description: The screening assay for Wnt activity is described as follows.
Following incubation, 15 μl of BriteLite Plus luminescence reagent (Perkin Elmer) was added to each well of the 384-well assay plates. The plates were placed on an orbital shaker for 2 min and then luminescence was quantified using the Envision (Perkin Elmer) plate reader.

[2] = molecular target: recombinant DYRK1A kinase (Homo sapiens (Human), UniProt Q13627); test: DYRK1A kinase assay (Ser/Thr 18 peptide Z-lyte FRET); format: biochemical; settings: 30 μM ATP, 1 h room temperature;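 also: Read-out is the coumarin to fluorescein emission ratio, referenced to unphosphorylated (0%) and phosphorylated (100%) Ser/Thr 18 peptide controls, values from dose-response curves by non-linear regression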
[3] = molecular target: recombinant GSK3β kinase (Homo sapiens (Human), UniProt P49841); test: GSK3β kinase assay (Ser/Thr 09 peptide Z-lyte FRET); format: biochemical; settings: 46 μM ATP, 1 h room temperature;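 also: kinase activity read as coumarin to fluorescein emission ratio, 11-point threefold dilutions from 10 µM to 0.0003 µM in duplicate, unphosphorylated and phosphorylated peptide as 0% and 100% controls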
recombinant GSK3β kinase, sequence (P49841 whole entry): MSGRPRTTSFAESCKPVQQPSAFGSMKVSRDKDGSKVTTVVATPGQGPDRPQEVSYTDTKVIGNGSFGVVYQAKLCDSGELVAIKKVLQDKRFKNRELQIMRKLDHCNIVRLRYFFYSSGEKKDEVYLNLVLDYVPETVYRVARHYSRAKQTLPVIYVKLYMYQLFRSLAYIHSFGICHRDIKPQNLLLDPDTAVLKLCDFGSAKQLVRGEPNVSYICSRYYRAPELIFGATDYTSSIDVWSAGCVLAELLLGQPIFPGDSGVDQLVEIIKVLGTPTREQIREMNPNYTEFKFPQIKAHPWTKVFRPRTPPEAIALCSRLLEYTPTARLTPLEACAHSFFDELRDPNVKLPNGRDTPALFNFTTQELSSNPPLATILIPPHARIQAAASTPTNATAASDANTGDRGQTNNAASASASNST

[4] = test system: Tau phosphorylation at Ser396 (pSer396); test: Tau phosphorylation assay (pSer396 ELISA / western blot) in SH-SY5Y cells; format: cell-based, human; settings: SH-SY5Y cells, overnight (16-18 h) exposure, read-out: pSer396 Tau EC50;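 also: EC50 for reduction of Tau pSer396 in lysed cells, measured by colorimetric ELISA or chemiluminescent western blot, both using the same pSer396 antibody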
Description: Two days before treatment, cells were seeded onto 96 well plates at 5×10^4 cells/well.
Wells were visually checked for cell death or change in morphology and supernatants were tested for cytotoxicity by measurement of lactate dehydrogenase release (LDH, CytoToxOne kit, Promega) if necessary.
Cells were lysed with RIPA buffer complemented with phosphatase and protease inhibitors then lysates were spun down at 12,000 g for 10 min to remove any cellular debris. Lysates are then either directly tested for pSer396 by ELISA (Life Technology, Kit KHB7031) or loaded on NuPage Bis-Tris gels for western blot analysis. Colorimetric detection of ELISA signal is performed by Cytation3 plate reader (Biotek) and the chemiluminescence signal for HRP-linked antibodies used in western blotting is detected using a Carestream Image Station. The same pSer396 antibody is used for detection of pTau in both assays.

[5] = test system: SW480 colon carcinoma cells; test: Cell viability assay (CellTiter-Glo); format: cell-based, human; settings: for EC50: SW480 cells, CellTiter-Glo, four days incubation
[6] = test system: IL-6; test: IL-6 inhibition in LPS-stimulated human peripheral blood mononuclear cells (HTRF); format: cell-based; settings: for EC50: Table 9, huPBMCs, LPS 50 ng/mL, 22 hours, dose-response starting from 10 μM; for inhibition at 10 µM: read-out: percent value in parentheses beside EC50 >10 μM;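 as to all read-outs here: IL-6 detected by HTRF with an XL665- and Cryptate-labelled anti-IL-6 antibody pair, samples run in duplicate, EC50 obtained from a four-parameter Levenberg-Marquardt curve fit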
Description: After 22 hour incubation, a mixture of anti-IL6 XL665 and anti-IL-6 Cryptate diluted in reconstitution buffer (Catalog #62IL6PEC, Cisbio Inc., Bedford, Mass.) was added to each well. […] All samples were processed in duplicate. […] EC50 was determined using software generated by Dotmatics Limited (Windhill Bishops Stortford Herts, UK) using the Levenberg-Marquardt 4 parameter fitting procedure with finite different gradients.

[7] = test system: IL-6; test: Secreted cytokines in lipopolysaccharide-stimulated BV-2 mouse microglial cells: IL-6; format: cell-based; settings: BV-2 cells, compounds overnight, LPS 250 ng/mL 5 h
Description: (§1) Representative compounds were screened using the cell-based assay procedure for secreted cytokines in a Lipopolysaccharide-stimulated mouse glial cell line described below.
(§2) BV-2 cells (mouse microglial cells) were cultured in 1:1 DMEM medium supplemented with 10% FBS, and 1% penicillin/streptomycin.
(§3) BV-2 cells are plated at 35,000 cells/well in a volume of 100 ul for at least 4 hours before compounds are added. DMSO-resuspended compounds were first dispensed in a 96 well plate and serial diluted from 10 μM to 4.6 nM final concentration in medium. Compounds were added to cells overnight. Two hundred fifty ng per milliliter of lipopolysaccharide (Escherichia coli O55:B5, SIGMA) was added for 5 h. Supernatant is removed and saved for further cytokine detection. The original plates with seeded cells were tested for cytotoxicity by measure of adenosine triphosphate (ATP) release by adding CellTiter-Glo® diluted 1:4 in distilled water (G7573, Promega) and transferring lysed cells to a completely black 96-well plate to be read with the Cytation3. Supernatant was then diluted 1:2 with a diluent from V-PLEX cytokine Kit and directly tested for the secreted cytokines TNFα, IL-6 and KC-GRO using electrochemiluminescence (Meso Scale Discovery). The standard curve for each cytokine was used to convert the electrochemiluminescent signal into pg of protein per mL.

[8] = test system: α-smooth muscle actin (αSMA) positive LL29 cells; test: Inhibition of fibrotic process: αSMA in TGF-β1 treated primary human fibroblasts from IPF patients; format: cell-based; settings: Homo sapiens, Fibroblast, 96 h; Table 8; LL29 fibroblasts from IPF patients, TGF-β1 20 ng/mL, 4 days; dose-response 10 μM to 0.94 nM;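 also: controls were TGF-β1 stimulated wells with DMSO vehicle (positive) and cells given DMSO alone (negative), cultured in F12 medium with 1% fetal bovine serum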
[9] = test system: TNFα; test: Secreted cytokines in lipopolysaccharide-stimulated BV-2 mouse microglial cells: TNFα; format: cell-based; settings: BV-2 cells, compounds overnight, LPS 250 ng/mL 5 h
Description: as §1, §2, §3

[10] = test system: secreted β-amyloid 40 (Aβ40) peptide; test: Secreted β-amyloid 40 (Aβ40) peptide in APP overexpressing SH-SY5Y-APP cells; format: cell-based; settings: Homo sapiens, overnight (16-18 hours)
Description: Representative compounds were screened using the cell-based assay procedure for secreted β-amyloid 40 (Aβ40) peptide in an APP overexpressing cell line described below.
SH-SY5Y cells were infected with lentivirus to overexpress amyloid (A4) beta precursor protein (APP), hereafter referred to as the SH-SY5Y-APP cells.
SH-SY5Y cells were seeded onto 6-well plates at
The cell assay procedure start 18 h prior to treatment, as SH-SY5Y-APP cells were seeded onto 96-well plates at
At this time, designated wells were seeded with SH-SY5Y cells that were seeded and treated with puromycin at
Cells were exposed overnight (16-18 hours) in a 37° C. incubator before supernatant was harvested. […] The original plates with seeded cells were tested for cytotoxicity by measure of adenosine triphosphate (ATP) release by adding CellTiter-Glo® diluted 1:4 in distilled water (G7573, Promega) and transferring lysed cells to a completely black 96-well plate to be read with the Cytation3. Plates containing supernatant were spun down at 1200 g for 10 minutes to remove any cellular debris. Supernatant was then diluted 1:2 with a diluent from V-PLEX Aβ40 Peptide (6E10) Kit and directly tested for secreted Aβ40 peptide (K150SKE, Meso Scale Discovery).

[11] = test system: KC-GRO; test: Secreted cytokines in lipopolysaccharide-stimulated BV-2 mouse microglial cells: KC-GRO; format: cell-based; settings: BV-2 cells, compounds overnight, LPS 250 ng/mL 5 h
Description: as §1, §2, §3

| Compound | EC50 [1] [nM] | EC50 [2] [nM] | EC50 [3] [nM] | EC50 [4] [nM] | EC50 [5] [nM] | EC50 [6] [nM] | EC50 [7] [nM] | EC50 ([1]; Homo sapiens) [nM] | EC50 ([4]; Homo sapiens) [nM] | EC50 ([5]; Homo sapiens, 96 h) [nM] | EC50 [8] [nM] | EC50 ([6]; Homo sapiens, PBMC) [nM] | EC50 [9] [nM] | EC50 ([7]; Mus musculus) [nM] | IC50 [10] [nM] | inhibition at 10 µM ([5]; Homo sapiens, SW480, read-out: percent inhibition at 10 μM) [%] | inhibition at 10 µM ([6]; Homo sapiens, PBMC) [%] | EC50 [11] [nM] |
| --- | --- | --- | --- | --- | --- | --- | --- | --- | --- | --- | --- | --- | --- | --- | --- | --- | --- | --- |
| 1-(2-Hydroxy-2-methylpropyl)-N-(6-(1-methyl-1H-1,2,3-triazol-4-yl) isoquinolin-3-yl)piperidine-4-carboxamide [Compound 1070] | 738 | 7.6 | 16 | 91 | 8390 | 6470 | 14 |  |  |  |  |  |  |  |  |  |  |  |
| CN1CCC(C(=O)Nc2cc3cc(-c4cnn(C)c4)ccc3cn2)CC1 [Compound 73, 1-Methyl-N-(6-(1-methyl-1H-pyrazol-4-yl)isoquinolin-3-yl)piperidine-4-carboxamide] |  | 1.7 | 49 |  |  |  |  | 485 | 199 | 769 | 169 | 963 | 23 | 80 |  |  |  |  |
| Cn1cc(-c2ccc3cnc(NC(=O)C4CCN(CCF)CC4)cc3c2)cn1 [Compound 81, 1-(2-Fluoroethyl)-N-(6-(1-methyl-1H-pyrazol-4-yl)isoquinolin-3-yl) piperidine-4-carboxamide] |  | 1.5 | 30 |  |  |  |  | 735 | 452 | 949 | 104 | 395 | > 10000 | 30 | 2300 |  |  |  |
| Cn1cc(-c2ccc3cnc(NC(=O)C4CCN(CC(C)(F)F)CC4)cc3c2)cn1 [Compound 83, 1-(2,2-Difluoropropyl)-N-(6-(1-methyl-1H-pyrazol-4-yl)isoquinolin-3-yl) piperidine-4-carboxamide] |  | 1.2 | 34 |  |  |  |  | 2900 | 432 | 6340 | 67 | 2150 |  | 6 | > 10000 |  |  |  |
| Cn1cncc1-c1ccc2cnc(NC(=O)C3CCN(CCC(F)(F)F)CC3)cc2c1 [Compound 262, N-(6-(1-Methyl-1H-imidazol-5-yl)isoquinolin-3-yl)-1-(3,3,3-trifluoropropyl) piperidine-4-carboxamide] |  | 1.5 | 24 |  |  |  |  | 1700 | 174 | 1390 | 43 | 1090 | 3200 | 1500 | 2200 |  |  |  |
| Cn1cc(-c2ccc3cnc(NC(=O)C4CCN(CCC(F)(F)F)CC4)cc3c2)nn1 [Compound 271, N-(6-(1-methyl-1H-1,2,3-triazol-4-yl)isoquinolin-3-yl)-1-(3,3,3-trifluoropropyl)piperidine-4-carboxamide] |  | 2.1 | 3 |  |  |  |  | 1720 | 124 | 2960 | 64 | 3080 |  |  | 4600 |  |  |  |
| Cn1cnnc1-c1ccc2cnc(NC(=O)C3CCN(CCC(F)(F)F)CC3)cc2c1 [Compound 278, N-(6-(4-Methyl-4H-1,2,4-triazol-3-yl)isoquinolin-3-yl)-1-(3,3,3-trifluoropropyl)piperidine-4-carboxamide] |  | 3.2 | 7 |  |  |  |  | 413 | 76 | 1230 | 211 | 3990 | > 10000 | 217 |  |  |  |  |
| CN1CC2(CC(C(=O)Nc3cc4cc(-c5cnn(C)c5)ccc4cn3)C2)C1 [Compound 324, 2-Methyl-N-(6-(1-methyl-1H-pyrazol-4-yl)isoquinolin-3-yl)-2-azaspiro[3.3] heptane-6-carboxamide] |  | 2.1 | 30 |  |  |  |  | 145 | 180 | 266 | 68 | 321 | 33 | 20 |  |  |  |  |
| Cn1cc(-c2ccc3cnc(NC(=O)CN4CCOCC4)cc3c2)cn1 [Compound 338, N-(6-(1-Methyl-1H-pyrazol-4-yl)isoquinolin-3-yl)-2-morpholinoacetamide] |  | 6.2 | 67 |  |  |  |  | 7370 | 1700 | 9330 | 643 | 4460 | 724 | 144 |  |  |  |  |
| CC(C)CN1CCC(C(=O)Nc2cc3cc(-c4cn(C)nn4)ccc3cn2)CC1 [Compound 468] |  | 4.9 | 7 |  |  |  |  | 363 | 39 | 2510 |  | 5780 | 2100 | 23 |  |  |  |  |
| CN1CCN(CC(=O)Nc2cc3cc(-c4cn(C)nn4)ccc3cn2)CC1 [Compound 500, N-(6-(1-Methyl-1H-1,2,3-triazol-4-yl)isoquinolin-3-yl)-2-(4-methylpiperazin-1-yl)acetamide] |  | 10.6 | 23 |  |  |  |  | 3230 | 388 | > 10000 | 675 | > 10000 | 1200 | 34 |  | 25.1 | 4 | 7 |
| CN1CCC(C(=O)Nc2cc3cc(-c4cnn(C)c4)c(F)cc3cn2)CC1 [Compound 966, N-(7-Fluoro-6-(1-methyl-1H-pyrazol-4-yl)isoquinolin-3-yl)-1-methylpiperidine-4-carboxamide] |  | 2 | 32 |  |  |  |  | 1590 | 236 | 259 | 14 |  | 60 | 22 |  |  |  | 71 |
| Cn1cc(-c2ccc3cnc(NC(=O)C4CCN(CC(C)(C)O)CC4)cc3c2)cn1 [Compound 1006, 1-(2-Hydroxy-2-methylpropyl)-N-(6-(1-methyl-1H-pyrazol-4-yl)isoquinolin-3-yl)piperidine-4-carboxamide] |  | 3 | 50 |  |  |  |  | 704 | 296 | 584 | 61 | 1130 | 24 | 11 |  |  |  | 27 |
| Cc1ncc(-c2ccc3cnc(NC(=O)[C@H]4CC[C@H](N(C)C)CC4)cc3c2)o1 [Compound 1017, trans-4-(dimethylamino)-N-(6-(2-methyloxazol-5-yl)isoquinolin-3-yl)cyclohexane-1-carboxamide] |  | 3.1 | 76 |  |  |  |  | 621 | 320 | 659 | 97 | 655 | 29 | 24 |  |  |  | 22 |
| Cc1ncc(-c2ccc3cnc(NC(=O)[C@H]4CC[C@H](N5CCOCC5)CC4)cc3c2)o1 [Compound 1064, trans-N-(6-(2-methyloxazol-5-yl)isoquinolin-3-yl)-4-morpholinocyclohexane-1-carboxamide] |  | 6.7 | 126 |  |  |  |  | 4120 | 109 | 4850 |  | 3500 | 30 | 6 |  |  |  | 14 |
| CN1CCC(C(=O)Nc2cc3cc(-c4nnc(N(C)C)o4)ccc3cn2)CC1 [Compound 1076, N-(6-(5-(dimethylamino)-1,3,4-oxadiazol-2-yl)isoquinolin-3-yl)-1-methylpiperidine-4-carboxamide] |  | 8.4 | 11 |  |  |  |  | 640 | 41 | 1580 |  | > 10000 | 1800 | 8 |  |  | 3 | 291 |
